Measured values reported in ChEMBL document CHEMBL1140032, “Furoxan-, alkylnitrate-derivatives and related compounds as anti-trypanosomatid agents: mechanism of action studies” (2008).

test system: Trypanosoma cruzi; assay: Antitrypanosomal activity against Trypanosoma cruzi Tulahuen 2 assessed as inhibition of epimastigotes growth after 5 days by MTT assay relative to control; format: functional; settings: Tulahuen 2, 120 h, read-out: ID50 (the source's name)

| IC50 [µM] | SMILES |
| --- | --- |
| 3.5 | O=S(=O)(c1ccccc1)c1no[n+]([O-])c1S(=O)(=O)c1ccccc1 |
| 4.5 | O=C(Cn1ccnc1[N+](=O)[O-])NCc1ccccc1 [BENZNIDAZOLE] |
| 7.5 | CCOCCS(=O)(=O)c1nonc1-c1ccccc1 |
| 7.5 | CCOC(=O)COc1no[n+]([O-])c1S(=O)(=O)c1ccccc1 |
| 5 | [O-][n+]1onc(-c2ccccc2)c1Br |
| 25 | CCCCCCNC(=O)N/N=C/c1c(-c2ccccc2)no[n+]1[O-] |
| 7.5 | O=S(=O)(CCO)c1c(-c2ccccc2)no[n+]1[O-] |
| 18 | CCOc1c(-c2ccccc2)no[n+]1[O-] |
| 3 | CN(C)CCCOc1no[n+]([O-])c1S(=O)(=O)c1ccccc1 |
| 10 | COc1ccccc1NCCS(=O)(=O)c1nonc1-c1ccccc1 |
| 4 | Cc1ncc([N+](=O)[O-])n1CCOc1no[n+]([O-])c1-c1ccccc1 |
| 6.5 | C=CS(=O)(=O)c1nonc1-c1ccccc1 |
| 2 | O=S(=O)(c1ccccc1)c1nonc1S(=O)(=O)c1ccccc1 |
| 19 | Cc1ncc([N+](=O)[O-])n1CCOc1nonc1S(=O)(=O)c1ccccc1 |
| 7.5 | CCOc1no[n+]([O-])c1-c1ccccc1 |
| 25 | O=S(=O)(CCO)c1no[n+]([O-])c1-c1ccccc1 |
| 25 | Nc1no[n+]([O-])c1-c1ccccc1 |
| 10 | O=S(=O)(c1ccccc1)c1nonc1-c1ccccc1 |
| 7.5 | O=S(=O)(c1ccccc1)c1c(OCCCO)no[n+]1[O-] |
| 7.5 | CCOc1no[n+]([O-])c1S(=O)(=O)c1ccccc1 |
| 5 | Cc1ncc([N+](=O)[O-])n1CCOc1nonc1-c1ccccc1 |
| 13 | [O-][n+]1onc(Br)c1-c1ccccc1 |
| 5 | Cc1ncc([N+](=O)[O-])n1CCOc1no[n+]([O-])c1S(=O)(=O)c1ccccc1 |
| 7.5 | CN(C)C(=O)CS(=O)(=O)c1c(-c2ccccc2)no[n+]1[O-] |

| SMILES | IC50 [µM] |
| --- | --- |
| CC1CS(=O)(=O)CCN1/N=C/c1ccc([N+](=O)[O-])o1 (stereo not given) [NIFURTIMOX] | 7.7 |

test system: Trypanosoma cruzi; assay: Antitrypanosomal activity against Trypanosoma cruzi Tulahuen 2 assessed as inhibition of growth of epimastigotes at 25 uM after 5 days by MTT assay relative to control; format: functional; settings: Tulahuen 2, 120 h, read-out: GI

| SMILES | inhibition of growth at 25 µM [%] |
| --- | --- |
| Cc1c(CN(C)C)no[n+]1[O-] | 0 |
| Cc1c(CN2CCC(Cc3c[nH]cn3)CC2)no[n+]1[O-] | 4 |
| Cc1c(CNC(c2c[nH]cn2)C2CCNCC2)no[n+]1[O-] (stereo not given) | 0 |
| NC(=O)CSc1no[n+]([O-])c1-c1ccccc1 | 12 |
| N#Cc1nonc1CN1CCC(Cc2c[nH]cn2)CC1 | 0 |
| NC(=O)c1c(CNC(c2c[nH]cn2)C2CCNCC2)no[n+]1[O-] (stereo not given) | 17 |
| O=C(O)CSc1no[n+]([O-])c1-c1ccccc1 | 4 |
| Cc1c(/C=N/O)no[n+]1[O-] | 32 |
| Nc1c(-c2ccccc2)no[n+]1[O-] | 39 |
| N#Cc1c(CNC(c2c[nH]cn2)C2CCNCC2)no[n+]1[O-] (stereo not given) | 7 |
| Cc1no[n+]([O-])c1-c1nc(S)n[nH]1 | 40 |
| Cc1nonc1CN(C)C | 0 |
| Cc1nonc1-c1nc(S)n[nH]1 | 32 |
| O=S(=O)(c1ccccc1)c1nonc1-c1c[nH]cn1 | 12 |
| NC(=O)c1no[n+]([O-])c1-c1ccccc1 | 10 |
| O=C(O)CSc1nonc1-c1ccccc1 | 31 |
| Cc1ncc([N+](=O)[O-])n1CCNCc1no[n+]([O-])c1C(N)=O | 10 |
| [O-][n+]1onc(SC2CCNCC2)c1-c1ccccc1 | 32 |
| Cc1ncc([N+](=O)[O-])n1CCNCc1nonc1C(N)=O | 14 |
| CN(C)Cc1no[n+]([O-])c1C(N)=O | 11 |
| N#Cc1no[n+]([O-])c1-c1ccccc1 | 15 |

| SMILES | inhibition of growth at 25 µM [%] |
| --- | --- |
| CCOc1nonc1-c1ccccc1 | 35 |
| Cc1no[n+]([O-])c1C(=O)NNC(N)=S | 10 |
| O=Cc1ccc(OCC(CO[N+](=O)[O-])O[N+](=O)[O-])cc1 (stereo not given) | 1 |
| COC(=O)CSc1no[n+]([O-])c1-c1ccccc1 | 15 |
| Cc1nonc1-c1nc2ccccc2s1 | 22 |
| Cc1ncc([N+](=O)[O-])n1CCNCc1no[n+]([O-])c1C#N | 5 |
| NC(=O)CS(=O)(=O)c1nonc1-c1ccccc1 | 27 |
| NC(=O)c1nonc1CN1CCCCC1 | 3 |
| [O-][n+]1onc(CO)c1/C=N/O | 2 |
| CN(C)CCCOc1nonc1-c1ccccc1 | 0 |
| CN(C)Cc1no[n+]([O-])c1C#N | 5 |
| O=C(O)COc1no[n+]([O-])c1S(=O)(=O)c1ccccc1 | 35 |
| NC(=O)CSc1nonc1-c1ccccc1 | 17 |
| Cc1c(-c2ccc(C(=O)O)cc2)no[n+]1[O-] | 34 |
| Cc1no[n+]([O-])c1-c1ccc(C(=O)O)cc1 | 38 |
| Nc1no[n+]([O-])c1C(=O)N1CCCCC1 | 17 |
| O=Cc1ccc(CC(CO[N+](=O)[O-])O[N+](=O)[O-])cc1 (stereo not given) | 0 |
| NC(=O)c1c(CN2CCCCC2)no[n+]1[O-] | 4 |
| NC(=O)c1c(-c2ccccc2)no[n+]1[O-] | 35 |
| COc1cc(CN2CCN(c3ccc(CC(CO[N+](=O)[O-])O[N+](=O)[O-])cc3)CC2)cc(OC)c1OC (stereo not given) | 3 |
| NC(=O)c1c(CN2CCC(Cc3c[nH]cn3)CC2)no[n+]1[O-] | 6 |

| SMILES | inhibition of growth at 25 µM [%] |
| --- | --- |
| Cc1nonc1CNC(c1c[nH]cn1)C1CCNCC1 (stereo not given) | 2 |
| O=C(O)c1ccc(OCC(CO[N+](=O)[O-])O[N+](=O)[O-])cc1 (stereo not given) | 0 |
| NC(=O)c1c(CO)no[n+]1[O-] | 0 |
| [O-][n+]1onc(-c2ccccc2)c1SC1CCNCC1 | 35 |
| CCNCCCO[N+](=O)[O-] | 0 |
| CCOCC.NC(=O)c1nonc1CNC(c1c[nH]cn1)C1CCNCC1 (stereo not given) | 0 |
| Cc1nonc1CNCCn1c([N+](=O)[O-])cnc1C | 18 |
| Cc1nonc1-c1nc2ccccc2o1 | 15 |
| Cc1c(C(=O)NNC(N)=S)no[n+]1[O-] | 9 |
| Cc1nonc1-c1nc2ccccc2[nH]1 | 20 |
| N#Cc1nonc1-c1ccccc1 | 2 |
| Cc1ncc([N+](=O)[O-])n1CCNCc1nonc1C#N | 23 |
| Cc1nonc1CN1CCC(Cc2c[nH]cn2)CC1 | 21 |
| COC(=O)CSc1c(S(=O)(=O)c2ccccc2)no[n+]1[O-] | 22 |
| Cc1ncc([N+](=O)[O-])n1CCOCC[N+](=O)[O-] | 13 |
| c1ccc(-c2nonc2SC2CCNCC2)cc1 | 34 |
| CN(C)CCCOc1nonc1-c1c[nH]cn1 | 3 |
| O=S(=O)(CCO)c1nonc1-c1ccccc1 | 17 |
| Cc1nonc1-c1ccc(C(=O)O)cc1 | 32 |
| NC(=O)c1nonc1CN1CCC(Cc2c[nH]cn2)CC1 | 0 |
| Cc1nonc1C(=O)NNC(N)=S | 16 |

| SMILES | inhibition of growth at 25 µM [%] |
| --- | --- |
| [O-][n+]1onc(/C=N/O)c1CO | 3 |
| Cc1c(-c2nc(S)n[nH]2)no[n+]1[O-] | 29 |
| CCSCCS(=O)(=O)c1nonc1-c1ccccc1 | 25 |
| Cc1no[n+]([O-])c1/C=N/O | 17 |
| CN(C)Cc1nonc1C(N)=O | 0 |
| NC(=O)CSc1c(-c2ccccc2)no[n+]1[O-] | 19 |
| NC(=O)c1nonc1CO | 0 |
| CCOc1nonc1S(=O)(=O)c1ccccc1 | 25 |
| CN(C)CCCOc1nonc1S(=O)(=O)c1ccccc1 | 15 |
| O=C(O)c1ccc(CC(CO[N+](=O)[O-])O[N+](=O)[O-])cc1 (stereo not given) | 0 |
| Nc1nonc1-c1ccccc1 | 45 |
| CS(=O)(=O)CCOc1nonc1-c1ccccc1 | 4 |
| N#Cc1c(CN2CCC(Cc3c[nH]cn3)CC2)no[n+]1[O-] | 9 |
| O=C(O)CSc1c(S(=O)(=O)c2ccccc2)no[n+]1[O-] | 0 |
| CN(C)Cc1nonc1C#N | 13 |
| CN(C)CCCOc1no[n+]([O-])c1-c1ccccc1 | 0 |
| CS(=O)(=O)CCOc1no[n+]([O-])c1-c1ccccc1 | 11 |
| Cc1ncc([N+](=O)[O-])n1CCNCc1no[n+]([O-])c1C | 17 |

test system: Trypanosoma cruzi; assay: Antitrypanosomal activity against Trypanosoma cruzi CL Brener assessed as parasite viability after 5 days by MTT assay; format: functional; settings: 120 h, read-out: ID50 (the source's name)

| IC50 [µM] | SMILES |
| --- | --- |
| > 50 | NC(=O)CSc1no[n+]([O-])c1-c1ccccc1 |
| > 50 | CCOCCS(=O)(=O)c1nonc1-c1ccccc1 |
| > 50 | COc1ccccc1NCCS(=O)(=O)c1nonc1-c1ccccc1 |
| > 50 | NC(=O)CS(=O)(=O)c1nonc1-c1ccccc1 |
| 22.2 | C=CS(=O)(=O)c1nonc1-c1ccccc1 |
| > 50 | NC(=O)CSc1nonc1-c1ccccc1 |
| > 50 | O=S(=O)(c1ccccc1)c1nonc1-c1ccccc1 |
| > 50 | CCSCCS(=O)(=O)c1nonc1-c1ccccc1 |
| > 50 | NC(=O)CSc1c(-c2ccccc2)no[n+]1[O-] |

| SMILES | IC50 [µM] |
| --- | --- |
| CC1CS(=O)(=O)CCN1/N=C/c1ccc([N+](=O)[O-])o1 (stereo not given) [NIFURTIMOX] | 4.9 |

test system: Trypanosoma cruzi; assay: Antitrypanosomal activity against Trypanosoma cruzi Y assessed as parasite viability after 5 days by MTT assay; format: functional; settings: 120 h, read-out: ID50 (the source's name)

| IC50 [µM] | SMILES |
| --- | --- |
| > 50 | NC(=O)CSc1no[n+]([O-])c1-c1ccccc1 |
| > 50 | CCOCCS(=O)(=O)c1nonc1-c1ccccc1 |
| 50 | COc1ccccc1NCCS(=O)(=O)c1nonc1-c1ccccc1 |
| > 50 | NC(=O)CS(=O)(=O)c1nonc1-c1ccccc1 |
| 23.5 | C=CS(=O)(=O)c1nonc1-c1ccccc1 |
| > 50 | NC(=O)CSc1nonc1-c1ccccc1 |
| > 50 | O=S(=O)(c1ccccc1)c1nonc1-c1ccccc1 |
| 28.7 | CCSCCS(=O)(=O)c1nonc1-c1ccccc1 |
| > 50 | NC(=O)CSc1c(-c2ccccc2)no[n+]1[O-] |

| SMILES | IC50 [µM] |
| --- | --- |
| CC1CS(=O)(=O)CCN1/N=C/c1ccc([N+](=O)[O-])o1 (stereo not given) [NIFURTIMOX] | 9.7 |

test system: Leishmania braziliensis; assay: Antileishmanial activity against Leishmania braziliensis MHOM/BR/00/LTB300 assessed as parasite viability after 5 days by MTT assay; format: functional; settings: 120 h, read-out: ID50 (the source's name)

| SMILES | IC50 [µM] |
| --- | --- |
| NC(=O)CSc1no[n+]([O-])c1-c1ccccc1 | > 50 |
| CCOCCS(=O)(=O)c1nonc1-c1ccccc1 | > 50 |
| COc1ccccc1NCCS(=O)(=O)c1nonc1-c1ccccc1 | 11.6 |
| NC(=O)CS(=O)(=O)c1nonc1-c1ccccc1 | > 50 |
| C=CS(=O)(=O)c1nonc1-c1ccccc1 | 8 |
| NC(=O)CSc1nonc1-c1ccccc1 | > 50 |
| O=S(=O)(c1ccccc1)c1nonc1-c1ccccc1 | > 50 |
| CCSCCS(=O)(=O)c1nonc1-c1ccccc1 | > 50 |
| NC(=O)CSc1c(-c2ccccc2)no[n+]1[O-] | > 50 |

test system: Leishmania pifanoi; assay: Antileishmanial activity against Leishmania pifanoi MHOM/VE/57/LV135 assessed as parasite viability after 5 days by MTT assay; format: functional; settings: 120 h, read-out: ID50 (the source's name)

| SMILES | IC50 [µM] |
| --- | --- |
| NC(=O)CSc1no[n+]([O-])c1-c1ccccc1 | > 50 |
| O=C(Cn1ccnc1[N+](=O)[O-])NCc1ccccc1 [BENZNIDAZOLE] | 3.8 |
| CCOCCS(=O)(=O)c1nonc1-c1ccccc1 | > 50 |
| COc1ccccc1NCCS(=O)(=O)c1nonc1-c1ccccc1 | 15.8 |
| NC(=O)CS(=O)(=O)c1nonc1-c1ccccc1 | > 50 |
| C=CS(=O)(=O)c1nonc1-c1ccccc1 | 20.4 |
| NC(=O)CSc1nonc1-c1ccccc1 | > 50 |
| O=S(=O)(c1ccccc1)c1nonc1-c1ccccc1 | > 50 |
| CCSCCS(=O)(=O)c1nonc1-c1ccccc1 | > 50 |
| NC(=O)CSc1c(-c2ccccc2)no[n+]1[O-] | > 50 |
